Assay results: ChEMBL document CHEMBL1201862, “PubChem BioAssay data set” (2004)
Several values for one entry are separate records, joined by “and”; a condition that tells them apart may be missing. Identical values can stand only once. Activity calls are given as the source filed them. For most assays here, no stated cut-off is given here; in the data, actives have a measured IC50 and inactives only a lower limit.

Columns and labels:
Type in all cases: functional
[1] = biological target: Protein disulfide-isomerase (Homo sapiens, UniProt P07237); experiment: PDI inhibitors, insulin aggregation turbidity, dose response, biochemical, absorbance, cherry-picked samples (AID 602350)
Protein disulfide-isomerase, sequence (P07237 whole entry): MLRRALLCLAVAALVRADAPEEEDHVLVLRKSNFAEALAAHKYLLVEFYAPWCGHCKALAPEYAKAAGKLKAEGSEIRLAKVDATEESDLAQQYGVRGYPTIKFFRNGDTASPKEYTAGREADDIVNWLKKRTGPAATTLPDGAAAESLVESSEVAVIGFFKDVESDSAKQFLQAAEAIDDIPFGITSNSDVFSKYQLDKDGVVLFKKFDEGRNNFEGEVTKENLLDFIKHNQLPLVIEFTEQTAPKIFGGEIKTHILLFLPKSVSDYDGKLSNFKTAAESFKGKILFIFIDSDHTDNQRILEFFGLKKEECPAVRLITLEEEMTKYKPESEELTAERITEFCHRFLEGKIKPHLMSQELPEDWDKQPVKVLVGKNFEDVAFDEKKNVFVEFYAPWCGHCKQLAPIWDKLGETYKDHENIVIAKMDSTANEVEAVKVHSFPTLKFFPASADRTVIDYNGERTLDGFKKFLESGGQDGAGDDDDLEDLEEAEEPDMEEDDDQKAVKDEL

[2] = biological target: T1, Sentrin-specific protease 8 (Homo sapiens, UniProt Q96LD8); experiment: SENP8 protease inhibitors, SAR follow-up, biochemical, luminescence (AID 504501)
T1 sequence (Q96LD8 whole entry): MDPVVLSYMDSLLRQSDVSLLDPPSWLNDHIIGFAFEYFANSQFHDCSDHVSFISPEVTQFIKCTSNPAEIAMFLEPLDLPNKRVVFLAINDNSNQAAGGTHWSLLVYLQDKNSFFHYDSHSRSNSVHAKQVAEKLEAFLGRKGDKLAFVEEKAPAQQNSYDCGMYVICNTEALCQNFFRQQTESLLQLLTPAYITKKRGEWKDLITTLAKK

[3] = biological target: T2, Sentrin-specific protease 7 (Homo sapiens, UniProt Q9BQF6); experiment: SENP7 protease inhibitors, SAR follow-up, biochemical, luminescence (AID 504497)
T2 sequence (Q9BQF6 whole entry): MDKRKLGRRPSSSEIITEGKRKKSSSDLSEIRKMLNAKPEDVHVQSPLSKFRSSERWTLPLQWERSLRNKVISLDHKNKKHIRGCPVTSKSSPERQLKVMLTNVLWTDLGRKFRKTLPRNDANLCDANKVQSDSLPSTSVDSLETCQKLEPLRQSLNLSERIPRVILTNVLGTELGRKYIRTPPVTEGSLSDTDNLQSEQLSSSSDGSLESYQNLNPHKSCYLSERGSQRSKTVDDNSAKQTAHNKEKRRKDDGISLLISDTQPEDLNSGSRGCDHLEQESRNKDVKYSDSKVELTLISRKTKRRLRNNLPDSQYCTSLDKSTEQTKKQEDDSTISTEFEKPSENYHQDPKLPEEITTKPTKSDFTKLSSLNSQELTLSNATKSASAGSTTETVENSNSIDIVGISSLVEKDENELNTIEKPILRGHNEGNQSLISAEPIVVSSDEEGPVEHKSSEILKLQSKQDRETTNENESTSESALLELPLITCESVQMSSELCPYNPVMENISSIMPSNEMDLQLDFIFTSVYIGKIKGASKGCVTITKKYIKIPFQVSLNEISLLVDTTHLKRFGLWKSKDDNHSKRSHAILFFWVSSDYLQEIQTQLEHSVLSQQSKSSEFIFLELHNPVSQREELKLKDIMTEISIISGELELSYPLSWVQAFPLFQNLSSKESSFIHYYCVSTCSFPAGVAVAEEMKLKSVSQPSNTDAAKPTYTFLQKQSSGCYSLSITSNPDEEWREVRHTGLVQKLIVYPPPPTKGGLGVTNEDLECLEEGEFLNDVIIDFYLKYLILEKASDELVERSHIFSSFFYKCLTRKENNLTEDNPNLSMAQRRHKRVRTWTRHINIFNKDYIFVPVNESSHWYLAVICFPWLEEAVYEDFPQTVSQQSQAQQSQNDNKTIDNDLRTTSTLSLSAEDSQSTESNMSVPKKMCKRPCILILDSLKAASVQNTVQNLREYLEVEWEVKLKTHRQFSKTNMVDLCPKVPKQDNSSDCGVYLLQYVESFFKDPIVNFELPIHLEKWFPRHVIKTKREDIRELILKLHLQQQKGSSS

Caspase-3 [4] = biological target: T3, Caspase-3 (Homo sapiens, UniProt P42574); experiment: caspase-3 inhibitors as off-family protease, SAR follow-up, selectivity assay for SENP protease inhibitor project, biochemical, luminescence, set 2 (AID 588599)
T3 sequence (P42574 whole entry): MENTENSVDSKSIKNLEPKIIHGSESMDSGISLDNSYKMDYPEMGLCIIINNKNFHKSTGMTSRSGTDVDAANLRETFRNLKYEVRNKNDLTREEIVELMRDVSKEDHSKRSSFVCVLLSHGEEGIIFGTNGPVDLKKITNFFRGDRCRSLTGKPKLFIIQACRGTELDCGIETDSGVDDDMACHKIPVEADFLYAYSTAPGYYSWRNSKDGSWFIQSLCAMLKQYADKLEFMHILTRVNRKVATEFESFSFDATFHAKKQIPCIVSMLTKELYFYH

[5] = biological target: T4, Sentrin-specific protease 6 (Homo sapiens, UniProt Q9GZR1); experiment: SAR Analysis of small molecule inhibitors of Sentrin-specific protease 6 (SENP6) using a Luminescent assay. [Related pubchem assays (depositor defined):AID2582, AID2599]
T4 sequence (Q9GZR1 whole entry): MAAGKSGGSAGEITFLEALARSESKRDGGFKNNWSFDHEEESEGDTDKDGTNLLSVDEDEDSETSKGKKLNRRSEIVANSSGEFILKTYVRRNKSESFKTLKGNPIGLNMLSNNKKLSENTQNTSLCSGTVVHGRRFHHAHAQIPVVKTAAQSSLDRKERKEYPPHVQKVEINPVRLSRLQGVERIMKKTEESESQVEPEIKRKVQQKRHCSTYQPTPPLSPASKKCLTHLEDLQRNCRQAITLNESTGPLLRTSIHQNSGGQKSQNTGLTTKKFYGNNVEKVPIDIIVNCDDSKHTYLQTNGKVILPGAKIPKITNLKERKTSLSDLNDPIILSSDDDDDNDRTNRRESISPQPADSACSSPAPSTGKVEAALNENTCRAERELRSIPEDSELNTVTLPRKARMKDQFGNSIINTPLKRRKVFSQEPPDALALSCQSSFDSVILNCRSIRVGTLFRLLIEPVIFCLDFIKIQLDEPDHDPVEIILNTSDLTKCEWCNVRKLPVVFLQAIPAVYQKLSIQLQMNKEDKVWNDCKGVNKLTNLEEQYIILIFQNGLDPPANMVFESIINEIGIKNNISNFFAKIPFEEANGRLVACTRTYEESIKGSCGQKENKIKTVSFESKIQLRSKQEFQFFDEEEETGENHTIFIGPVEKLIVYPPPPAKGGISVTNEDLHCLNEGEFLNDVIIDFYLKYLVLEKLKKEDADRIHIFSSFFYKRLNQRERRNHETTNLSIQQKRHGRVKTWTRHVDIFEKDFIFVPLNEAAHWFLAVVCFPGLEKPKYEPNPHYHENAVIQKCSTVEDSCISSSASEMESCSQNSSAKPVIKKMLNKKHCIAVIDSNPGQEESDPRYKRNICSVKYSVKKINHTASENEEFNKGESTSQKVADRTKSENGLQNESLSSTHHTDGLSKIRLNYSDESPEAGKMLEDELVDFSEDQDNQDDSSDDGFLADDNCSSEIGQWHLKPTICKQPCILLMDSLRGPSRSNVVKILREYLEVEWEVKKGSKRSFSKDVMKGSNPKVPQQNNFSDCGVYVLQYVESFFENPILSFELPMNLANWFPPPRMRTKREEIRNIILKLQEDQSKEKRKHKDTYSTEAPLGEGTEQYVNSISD

[6] = biological target: T4, Sentrin-specific protease 6; experiment: SENP6 protease inhibitors, SAR follow-up, biochemical, luminescence, set 2 (AID 588598)
Caspase-3 [7] = biological target: T3, Caspase-3; experiment: SAR Analysis of small molecule inhibitors of Sentrin-specific proteases (SENPs) using a Caspase-3 Selectivity assay. [Related pubchem assays (depositor defined):AID2540, AID2599, AID434973, AID489001]
[8] = biological target: T2, Sentrin-specific protease 7; experiment: SENP7 protease inhibitors, SAR follow-up, biochemical, luminescence, set 2 (AID 588600)
[9] = biological target: T1, Sentrin-specific protease 8; experiment: SENP8 protease inhibitors, SAR follow-up, biochemical, luminescence, set 2 (AID 588601)
[10] = biological target: Apoptotic protease-activating factor 1 (Homo sapiens, UniProt O14727); experiment: SAR analysis of small molecule Activators of Apaf-1 in a Fluorescent assay.; conditions: read-out: EC50_Mean;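 further: caspase-3 cleavage of fluorogenic Rh110 DEVD substrate downstream of apoptosome activation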
Apoptotic protease-activating factor 1, sequence (O14727 whole entry): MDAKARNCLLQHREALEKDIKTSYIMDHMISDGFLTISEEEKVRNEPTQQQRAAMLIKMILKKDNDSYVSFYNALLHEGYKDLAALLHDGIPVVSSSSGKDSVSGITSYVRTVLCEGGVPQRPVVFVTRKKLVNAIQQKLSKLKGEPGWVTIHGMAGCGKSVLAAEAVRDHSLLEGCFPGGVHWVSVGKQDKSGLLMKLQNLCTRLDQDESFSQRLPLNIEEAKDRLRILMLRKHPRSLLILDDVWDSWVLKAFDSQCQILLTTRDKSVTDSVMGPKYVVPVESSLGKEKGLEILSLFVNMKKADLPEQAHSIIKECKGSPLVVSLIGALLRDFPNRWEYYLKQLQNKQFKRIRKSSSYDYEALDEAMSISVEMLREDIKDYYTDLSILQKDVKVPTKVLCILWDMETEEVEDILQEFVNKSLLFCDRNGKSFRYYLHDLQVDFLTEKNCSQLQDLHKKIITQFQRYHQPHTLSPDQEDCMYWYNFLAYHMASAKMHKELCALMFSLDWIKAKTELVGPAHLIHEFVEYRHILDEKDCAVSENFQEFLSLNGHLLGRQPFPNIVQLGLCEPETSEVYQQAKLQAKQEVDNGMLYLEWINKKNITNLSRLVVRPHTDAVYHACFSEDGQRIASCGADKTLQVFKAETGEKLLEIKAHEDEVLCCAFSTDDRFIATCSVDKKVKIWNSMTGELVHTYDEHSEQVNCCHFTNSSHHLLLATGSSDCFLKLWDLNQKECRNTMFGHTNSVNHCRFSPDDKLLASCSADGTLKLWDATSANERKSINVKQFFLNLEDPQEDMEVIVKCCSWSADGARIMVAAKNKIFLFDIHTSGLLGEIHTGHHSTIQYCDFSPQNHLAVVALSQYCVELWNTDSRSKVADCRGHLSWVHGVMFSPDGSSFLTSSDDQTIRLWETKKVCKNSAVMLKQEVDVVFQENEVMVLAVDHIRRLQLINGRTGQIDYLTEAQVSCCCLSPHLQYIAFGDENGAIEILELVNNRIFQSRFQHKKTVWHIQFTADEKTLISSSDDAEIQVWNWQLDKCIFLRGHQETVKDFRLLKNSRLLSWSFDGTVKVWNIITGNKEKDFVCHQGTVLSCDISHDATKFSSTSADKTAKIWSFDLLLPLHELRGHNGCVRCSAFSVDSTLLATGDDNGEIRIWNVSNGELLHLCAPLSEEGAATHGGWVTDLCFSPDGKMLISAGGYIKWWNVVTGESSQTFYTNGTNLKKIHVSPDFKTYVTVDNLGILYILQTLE

[11] = AlphaScreen signal interference compounds, dose response, artefact control for ARNT-TACC3 interaction inhibitor project, biochemical, luminescence, cherry-pick (AID 651705);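 further: AlphaScreen bead proximity signal that flags compounds interfering with the detection technology; potency reflects signal decrease which marks the compound as an assay artifact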

| SMILES | AC50 [1] | IC50 (Caspase-3 [4]) | IC50 [6] | IC50 [8] | IC50 [9] | further results |
| --- | --- | --- | --- | --- | --- | --- |
| CCN(CC)c1ccc(/C=C/c2noc(-c3ccccc3O)n2)cc1 |  | > 99 µM (inactive) | 30.7 µM (active) | > 99 µM (inactive) | > 99 µM (inactive) | IC50 [2]: 43 µM (active); IC50 [3]: 14 µM (active); IC50 [5]: 35 µM (active); IC50 (Caspase-3 [7]): 48 µM (active) |
| CCOc1cc(/C=C(/C#N)c2nc(-c3ccc(C)cc3)no2)cc(Cl)c1O |  | > 99 µM (inactive) | > 99 µM (inactive) | > 99 µM (inactive) | > 99 µM (inactive) |  |
| Cc1cc(C)n(C(C)CC(=O)Nc2cccnc2)n1 (stereo unspecified) |  |  |  |  |  | EC50 [10]: > 100 µM (inactive) |
| CCCCCC/C=N/Nc1nnc(Cc2ccc(OC)c(OC)c2)c(O)n1 |  |  |  |  |  | AC50 [11]: 132 µM (active) |

The next lines start with results.

| AC50 [1] | IC50 (Caspase-3 [4]) | IC50 [6] | IC50 [8] | SMILES | IC50 [9] | further results |
| --- | --- | --- | --- | --- | --- | --- |
| 19.5 µM (active) and 7.04 µM (active) |  |  |  | C[C@@H]1CN([C@@H](C)CO)C(=O)c2cccc(NS(C)(=O)=O)c2O[C@H]1CN(C)Cc1ccc(Oc2ccccc2)cc1 |  |  |
| 19.5 µM (active) |  |  |  | C[C@H](CO)N1C[C@H](C)[C@H](CN(C)Cc2ccccc2)Oc2ccc(NC(=O)Nc3ccccc3)cc2CC1=O |  |  |
